Reference: patent US20200017496A1 (priority 2017, published 2020)
Read-outs that look alike come from different tables or passages of the source.

Experiments:
Test in all cases: MIC of compounds alone and combined with antibacterials, broth microdilution (CLSI)
Format in all cases: cell-based
[1] = system: Citrobacter koseri (CKR) isolates; settings: for MIC ATB in combination: AF1 @ 4 μg/mL; for MIC: Citrobacter koseri, ATB alone
Summary of the method: (§1)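 Inoculum 5·10^5 CFU/mL (final), log phase, ca-MHB; 16-20 h, 35° C, ambient air. MIC = lowest conc. with no visible growth; ATB MIC read at each compound level.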

[2] = system: Enterobacter aerogenes (EAE) isolates; settings: for MIC ATB in combination: AF1 @ 4 μg/mL; for MIC: Klebsiella aerogenes
Summary of the method: as §1

[3] = system: Escherichia coli (ECO) isolates; settings: for MIC ATB in combination: AF1 @ 4 μg/mL; for MIC: Escherichia coli
Summary of the method: as §1

Compound: CO/N=C(\C(=O)N[C@@H]1C(=O)N2C(C(=O)O)=C(COC(N)=O)CS[C@H]12)c1ccco1 [FUR, Cefuroxime]
- MIC ATB in combination ([1]; CKO ROU): 32 µg/mL
- MIC ATB in combination ([1]; CKO UFR149): 128 µg/mL
- MIC ATB in combination ([1]; CKO UFR150): 32 µg/mL
- MIC ([1]; strain CKO ROU (TEM-1, SHV-12, CTX-M-15, OXA-1, OXA-48), read-out: MIC): 64 µg/mL
- MIC ([1]; strain CKO UFR149 (OXA-48)): > 256 µg/mL
- MIC ([1]; strain CKO UFR150 (TEM-1, OXA-48), read-out: MIC): 64 µg/mL
- MIC ATB in combination ([2]; EAE 49469): 64 µg/mL
- MIC ATB in combination ([2]; EAE 200261): 64 µg/mL
- MIC ATB in combination ([2]; EAE UFR199): 8 µg/mL
- MIC ATB in combination ([2]; EAE UFR201): 2 µg/mL
- MIC ATB in combination ([2]; EAE UFR202): 32 µg/mL
- MIC ATB in combination ([2]; EAE UFR213): 8 µg/mL
- MIC [2]: > 256 µg/mL
- MIC ([2]; strain EAE 49469 (AmpC), ATB alone, read-out: MIC): > 128 µg/mL
- MIC ([2]; strain EAE 200261 (TEM-x, AmpC), ATB alone, read-out: MIC): > 256 µg/mL
- MIC ([2]; strain EAE UFR201 (TEM-1, SHV-12, CTX-M-15), ATB alone, read-out: MIC): > 256 µg/mL
- MIC ([2]; strain EAE UFR202 (TEM-24), ATB alone, read-out: MIC): > 256 µg/mL
- MIC ([2]; strain EAE UFR213 (TEM-24), ATB alone, read-out: MIC): > 256 µg/mL
- MIC ATB in combination ([3]; ECO 4133): 4 µg/mL
- MIC ATB in combination ([3]; ECO 5302): 4 µg/mL
- MIC ATB in combination ([3]; ECO 131119): 4 µg/mL
- MIC ATB in combination ([3]; ECO 180070): 4 µg/mL
- MIC ATB in combination ([3]; ECO 190314): 4 µg/mL
- MIC ATB in combination ([3]; ECO 190317): 4 µg/mL
- MIC ATB in combination ([3]; ECO 190457): 8 µg/mL
- MIC ATB in combination ([3]; ECO 190549): 2 µg/mL
- MIC ATB in combination ([3]; ECO 200159): 2 µg/mL
- MIC ATB in combination ([3]; ECO 200259): 2 µg/mL
- MIC ATB in combination ([3]; ECO 200344): 4 µg/mL
- MIC ATB in combination ([3]; ECO 260096): 4 µg/mL
- MIC ATB in combination ([3]; ECO 260304): 4 µg/mL
- MIC ATB in combination ([3]; ECO 260508): 2 µg/mL
- MIC ATB in combination ([3]; ECO RGN238): 8 µg/mL
- MIC ATB in combination ([3]; ECO UFR15): 2 µg/mL
- MIC ATB in combination ([3]; ECO UFR16): 16 µg/mL
- MIC ATB in combination ([3]; ECO UFR18): 32 µg/mL
- MIC ATB in combination ([3]; ECO UFR19): 16 µg/mL
- MIC ATB in combination ([3]; ECO UFR20): 64 µg/mL
- MIC ATB in combination ([3]; ECO UFR61O): 8 µg/mL
- MIC ATB in combination ([3]; ECO UFR62): 8 µg/mL
- MIC ATB in combination ([3]; ECO UFR74): 16 µg/mL
- MIC ATB in combination ([3]; ECO UFR86): 32 µg/mL
- MIC ATB in combination ([3]; ECO UFR174): 2 µg/mL
- MIC ATB in combination ([3]; ECO UFR175): 8 µg/mL
- MIC ATB in combination ([3]; ECO UFR176): 4 µg/mL
- MIC ATB in combination ([3]; ECO UFR184): 64 µg/mL
- MIC ATB in combination ([3]; ECO UFR186): 16 µg/mL
- MIC ATB in combination ([3]; ECO UFR187): 8 µg/mL
- MIC ATB in combination ([3]; ECO UFR189): 2 µg/mL
- MIC ATB in combination ([3]; ECO UFR190): 8 µg/mL
- MIC ATB in combination ([3]; ECO UFR191): 8 µg/mL
- MIC ATB in combination ([3]; ECO UFR207): 2 µg/mL
- MIC ATB in combination ([3]; ECO UFR209): 4 µg/mL
- MIC ATB in combination ([3]; ECO UFR210): 2 µg/mL
- MIC ATB in combination ([3]; ECO UFR211): 8 µg/mL
- MIC ATB in combination ([3]; ECO UFR218): 4 µg/mL
- MIC [3]: > 256 µg/mL
- MIC ([3]; strain ECO 4133 (TEM-30, OXA-1), ATB alone): 16 µg/mL
- MIC ([3]; strain ECO 5302 (TEM-1, OXA-1), ATB alone): 32 µg/mL
- MIC ([3]; strain ECO 131119 (TEM-1, OXA-48), ATB alone): 8 µg/mL
- MIC ([3]; strain ECO 180070 (TEM-1, CTX-M-15), ATB alone, read-out: MIC): > 256 µg/mL
- MIC ([3]; strain ECO 190314 (CTX-M-1), ATB alone, read-out: MIC): > 256 µg/mL
- MIC ([3]; strain ECO 190317 (TEM-1, SHV-12, CTX-M-15, OXA-1), ATB alone): > 512 µg/mL
- MIC ([3]; strain ECO 190457 (CTX-M-15, OXA-1), ATB alone, read-out: MIC): > 256 µg/mL
- MIC ([3]; strain ECO 190549 (CTX-M-1), ATB alone, read-out: MIC): > 256 µg/mL
- MIC ([3]; strain ECO 200159 (TEM-1, CTX-M-14), ATB alone, read-out: MIC): > 256 µg/mL
- MIC ([3]; strain ECO 200259 (CTX-M-14), ATB alone, read-out: MIC): > 256 µg/mL
- MIC ([3]; strain ECO 200344 (CTX-M-1), ATB alone, read-out: MIC): > 256 µg/mL
- MIC ([3]; strain ECO 260096 (CTX-M-132), ATB alone, read-out: MIC): > 256 µg/mL
- MIC ([3]; strain ECO 260304 (CTX-M-15), ATB alone, read-out: MIC): > 256 µg/mL
- MIC ([3]; strain ECO 260508 (TEM-1, CTX-M-15, OXA-1), ATB alone, read-out: MIC): > 256 µg/mL
- MIC ([3]; strain ECO RGN238 (OXA-1), ATB alone): 16 µg/mL
- MIC ([3]; strain ECO UFR15 (TEM-1, OXA-48), ATB alone): 16 µg/mL
